Values after ≈ are worked out from the molar mass of the structure shown. Blank lines part the entries; values can stand above or below the molecule they belong to. Active and inactive are the calls of the source. The rule behind the calls is not given here. Positions of bridges follow the written chain, without caps; N, C: chain ends. Non-standard residues stand in square brackets, D forms with d. Residues, ends and D or L forms follow the SMILES beside them. *: point of attachment. X1 = CC[C@H](C)CCCCC(=O)*; Dab = NCC[C@H](N)C(=O)O
Experiments:
Escherichia coli [1] = assay: Antibacterial activity against Escherichia coli ATCC 25922 assessed as transparent well by visual inspection after 18 hrs by CLSI based-broth microdilution method; assay type: functional
Pseudomonas aeruginosa [2] = assay: Antibacterial activity against Pseudomonas aeruginosa ATCC 27853 assessed as transparent well by visual inspection after 18 hrs by CLSI based-broth microdilution method; assay type: functional
Enterobacter sp. = assay: Antibacterial activity against Enterobacter sakazakii ATCC 29544 assessed as transparent well by visual inspection after 18 hrs by CLSI based-broth microdilution method; assay type: functional
Staphylococcus aureus [3] = assay: Antibacterial activity against Staphylococcus aureus ATCC 29213 assessed as transparent well by visual inspection after 18 hrs by CLSI based-broth microdilution method; assay type: functional; conditions: C1 ATCC 29213
Bacillus subtilis = assay: Antibacterial activity against Bacillus subtilis ATCC 23857 assessed as transparent well by visual inspection after 18 hrs by CLSI based-broth microdilution method; assay type: functional
[4] = tested on: Staphylococcus epidermidis; assay: Antibacterial activity against Staphylococcus epidermidis ATCC 12228 assessed as transparent well by visual inspection after 18 hrs by CLSI based-broth microdilution method; assay type: functional
Staphylococcus aureus [5] = assay: Antibacterial activity against methicillin resistant Staphylococcus aureus clinical isolate 1 assessed as transparent well by visual inspection after 18 hrs by CLSI based-broth microdilution method; assay type: functional; conditions: C1
Staphylococcus aureus [6] = assay: Antibacterial activity against methicillin resistant Staphylococcus aureus clinical isolate 2 assessed as transparent well by visual inspection after 18 hrs by CLSI based-broth microdilution method; assay type: functional
Staphylococcus aureus [7] = assay: Antibacterial activity against methicillin resistant Staphylococcus aureus clinical isolate 3 assessed as transparent well by visual inspection after 18 hrs by CLSI based-broth microdilution method; assay type: functional
Staphylococcus aureus [8] = assay: Antibacterial activity against methicillin resistant Staphylococcus aureus clinical isolate 4 assessed as transparent well by visual inspection after 18 hrs by CLSI based-broth microdilution method; assay type: functional
Escherichia coli [9] = assay: Antibacterial activity against ESBL-producing Escherichia coli clinical isolate 1 assessed as transparent well by visual inspection after 18 hrs by CLSI based-broth microdilution method; assay type: functional
Escherichia coli [10] = assay: Antibacterial activity against ESBL-producing Escherichia coli clinical isolate 2 assessed as transparent well by visual inspection after 18 hrs by CLSI based-broth microdilution method; assay type: functional
Escherichia coli [11] = assay: Antibacterial activity against ESBL-producing Escherichia coli clinical isolate 3 assessed as transparent well by visual inspection after 18 hrs by CLSI based-broth microdilution method; assay type: functional
Escherichia coli [12] = assay: Antibacterial activity against ESBL-producing Escherichia coli clinical isolate 4 assessed as transparent well by visual inspection after 18 hrs by CLSI based-broth microdilution method; assay type: functional
Escherichia coli [13] = assay: Antibacterial activity against ESBL-producing Escherichia coli clinical isolate 5 assessed as transparent well by visual inspection after 18 hrs by CLSI based-broth microdilution method; assay type: functional
Pseudomonas aeruginosa [14] = assay: Antibacterial activity against Pseudomonas aeruginosa clinical isolate assessed as transparent well by visual inspection after 18 hrs by CLSI based-broth microdilution method; assay type: functional
Erythrocyte = assay: Haemolytic activity in human erythrocytes by optical absorption assay; assay type: ADME, cell-based
NIH3T3 = assay: Cytotoxicity against mouse NIH/3T3 assessed as reduction in cell viability measured after 24 hrs by MTT assay; assay type: cell-based; conditions: nih3t3, 24 h
RAW264.7 = assay: Cytotoxicity against mouse RAW264.7 assessed as reduction in cell viability measured after 24 hrs by MTT assay; assay type: cell-based; conditions: raw264.7, 24 h
HeLa = assay: Cytotoxicity against human HeLa cells assessed as reduction in cell viability measured after 24 hrs by MTT assay; assay type: cell-based
Staphylococcus aureus [15] = assay: Bactericidal activity against Staphylococcus aureus assessed as killing effect at 2 times MIC measured at 60 mins by bacterial colony counting assay; assay type: functional; conditions: 1 h
Escherichia coli [16] = assay: Bactericidal activity against Escherichia coli assessed as killing effect at 2 times MIC measured at 60 mins by bacterial colony counting assay; assay type: functional; conditions: 1 h
Staphylococcus aureus [17] = assay: Bactericidal activity against Staphylococcus aureus assessed as killing effect at 1 times MIC measured at 120 mins by bacterial colony counting assay; assay type: functional, organism-based
Escherichia coli [18] = assay: Bactericidal activity against Escherichia coli assessed as killing effect at 1 times MIC measured at 120 mins by bacterial colony counting assay; assay type: functional, organism-based
Pseudomonas aeruginosa [19] = assay: Inhibition of biofilm formation in multidrug-resistant Pseudomonas aeruginosa at 256 uM measured after 24 hrs by crystal violet staining based assay; assay type: functional, organism-based
Cell membrane [20] = assay: Induction of outer membrane permeabilization in Escherichia coli using NPN hydrophobic fluorescent probe at 1 to 8 times of MIC measured for 15 mins by multimode reader
Cell membrane [21] = assay: Induction of inner membrane permeabilization in Escherichia coli ML-35 assessed as increase in ONPG at 1 to 8 times of MIC measured 100 mins by multimode reader

MIC (Escherichia coli [1]): 8 µM | MIC (Pseudomonas aeruginosa [2]): 32 µM | MIC (Enterobacter sp.): 8 µM | MIC (Staphylococcus aureus [3]): 32 µM | MIC (Bacillus subtilis): 8 µM | MIC [4]: 16 µM
Molecule: H-PWRLRLHL-OH

Molecule: CC[C@H](C)CCCCC(=O)N[C@@H](CCN)C(=O)N[C@H](C(=O)N[C@@H](CCN)C(=O)N[C@H]1CCNC(=O)[C@H]([C@@H](C)O)NC(=O)[C@H](CCN)NC(=O)[C@H](CCN)NC(=O)[C@H](CC(C)C)NC(=O)[C@@H](Cc2ccccc2)NC(=O)[C@H](CCN)NC1=O)[C@@H](C)O (X1-[Dab]T[Dab][Dab][Dab][dF]L[Dab][Dab]T; lactam 4-C)
MIC (Escherichia coli [1]): 0.5 µM (≈ 0.602 µg/mL) | MIC (Pseudomonas aeruginosa [2]): 1 µM (≈ 1.2 µg/mL) | MIC (Enterobacter sp.): 0.5 µM (≈ 0.602 µg/mL) | MIC (Staphylococcus aureus [3]): 8 µM (≈ 9.63 µg/mL) | MIC (Bacillus subtilis): 2 µM (≈ 2.41 µg/mL) | MIC [4]: 2 µM (≈ 2.41 µg/mL) | MIC (Staphylococcus aureus [5]): 8 µM (≈ 9.63 µg/mL) | MIC (Staphylococcus aureus [6]): 8 µM (≈ 9.63 µg/mL) | MIC (Staphylococcus aureus [7]): 8 µM (≈ 9.63 µg/mL) | MIC (Staphylococcus aureus [8]): 8 µM (≈ 9.63 µg/mL) | MIC (Escherichia coli [9]): 0.5 µM (≈ 0.602 µg/mL) | MIC (Escherichia coli [10]): 0.5 µM (≈ 0.602 µg/mL) | MIC (Escherichia coli [11]): 0.5 µM (≈ 0.602 µg/mL) | MIC (Escherichia coli [12]): 0.5 µM (≈ 0.602 µg/mL) | MIC (Escherichia coli [13]): 0.5 µM (≈ 0.602 µg/mL) | MIC (Pseudomonas aeruginosa [14]): 1 µM (≈ 1.2 µg/mL)

MIC (Escherichia coli [1]): 32 µM | MIC (Pseudomonas aeruginosa [2]): 32 µM | MIC (Enterobacter sp.): 32 µM | MIC (Staphylococcus aureus [3]): 128 µM | MIC (Bacillus subtilis): 16 µM | MIC [4]: 34 µM
Molecule: H-PFRLSLHL-OH

MIC (Escherichia coli [1]): 8 µM | MIC (Pseudomonas aeruginosa [2]): 32 µM | MIC (Enterobacter sp.): 16 µM | MIC (Staphylococcus aureus [3]): 64 µM | MIC (Bacillus subtilis): 16 µM | MIC [4]: 16 µM
Molecule: H-PFRLSLRL-OH

Molecule: H-PFRLRLRL-OH
MIC (Escherichia coli [1]): 8 µM | MIC (Pseudomonas aeruginosa [2]): 8 µM | MIC (Enterobacter sp.): 32 µM | MIC (Staphylococcus aureus [3]): 64 µM | MIC (Bacillus subtilis): 8 µM | MIC [4]: 16 µM | MIC (Staphylococcus aureus [5]): 64 µM | MIC (Staphylococcus aureus [6]): 64 µM | MIC (Staphylococcus aureus [7]): 64 µM | MIC (Staphylococcus aureus [8]): 64 µM | MIC (Escherichia coli [9]): 8 µM | MIC (Escherichia coli [10]): 8 µM | MIC (Escherichia coli [11]): 8 µM | MIC (Escherichia coli [12]): 8 µM | MIC (Escherichia coli [13]): 8 µM | MIC (Pseudomonas aeruginosa [14]): 8 µM | Activity (Erythrocyte): Non-Toxic | Activity (NIH3T3): Non-Toxic | Activity (RAW264.7): Non-Toxic | Activity (HeLa): Non-Toxic | Activity (Staphylococcus aureus [15]): 100% | Activity (Escherichia coli [16]): 100% | Activity (Staphylococcus aureus [17]): Active | Activity (Escherichia coli [18]): Active | inhibition (Pseudomonas aeruginosa [19]): Active | Activity (Cell membrane [20]): Dose-Dependent Effect | Activity (Cell membrane [21]): Active

MIC (Escherichia coli [1]): 32 µM | MIC (Pseudomonas aeruginosa [2]): 32 µM | MIC (Enterobacter sp.): 32 µM | MIC (Staphylococcus aureus [3]): 128 µM | MIC (Bacillus subtilis): 32 µM | MIC [4]: 32 µM
Molecule: H-PFKLKLHL-OH

MIC (Escherichia coli [1]): 32 µM | MIC (Pseudomonas aeruginosa [2]): 32 µM | MIC (Enterobacter sp.): 32 µM | MIC (Staphylococcus aureus [3]): 128 µM | MIC (Bacillus subtilis): 16 µM | MIC [4]: 16 µM
Molecule: H-PFKLKLKL-OH

MIC (Escherichia coli [1]): 32 µM | MIC (Pseudomonas aeruginosa [2]): 32 µM | MIC (Enterobacter sp.): 32 µM | MIC (Staphylococcus aureus [3]): 128 µM | MIC (Bacillus subtilis): 16 µM | MIC [4]: 16 µM
Molecule: H-PFKLSLKL-OH
